From patent US8822517B2, “Arylosulfonamides for the treatment of CNS diseases” (Adamed SP. Z O.O., priority 2010, dated 2014)

How the values were obtained:
[1] = target: T1, serotoninergic 5-HT1A receptor (Homo sapiens, UniProt P08908); assay: Binding assay 5-HT1A (h), [3H]8-OH-DPAT, HEK-293 cells; set-up: expressed in transfected cells; host or cells: HEK-293 cells; settings: read-out: 5-HT1A
T1 sequence (P08908 1-422): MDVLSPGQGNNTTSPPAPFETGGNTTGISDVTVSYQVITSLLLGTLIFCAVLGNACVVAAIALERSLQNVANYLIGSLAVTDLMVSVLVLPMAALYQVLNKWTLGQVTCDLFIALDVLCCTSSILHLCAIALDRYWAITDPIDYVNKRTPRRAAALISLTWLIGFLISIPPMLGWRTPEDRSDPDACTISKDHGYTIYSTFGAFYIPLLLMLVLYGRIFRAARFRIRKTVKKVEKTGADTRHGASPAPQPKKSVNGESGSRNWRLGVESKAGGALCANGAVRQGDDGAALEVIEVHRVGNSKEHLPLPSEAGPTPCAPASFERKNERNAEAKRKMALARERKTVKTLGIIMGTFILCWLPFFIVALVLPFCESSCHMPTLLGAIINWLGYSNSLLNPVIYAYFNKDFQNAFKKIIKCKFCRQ
Summary of the method: (§1)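 Compounds tested at a single 1×10^−6 M concentration against the listed radioligands; bound label counted by scintillation, with non-specific binding defined by excess unlabelled ligand and subtracted from total.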

[2] = target: T2, histaminergic H1 receptor (Homo sapiens, UniProt P35367); assay: Binding assay H1 (h), [3H]pyrilamine, HEK-293 cells; set-up: expressed in transfected cells; host or cells: HEK-293 cells; settings: read-out: H1 [%]
T2 sequence (P35367 whole entry): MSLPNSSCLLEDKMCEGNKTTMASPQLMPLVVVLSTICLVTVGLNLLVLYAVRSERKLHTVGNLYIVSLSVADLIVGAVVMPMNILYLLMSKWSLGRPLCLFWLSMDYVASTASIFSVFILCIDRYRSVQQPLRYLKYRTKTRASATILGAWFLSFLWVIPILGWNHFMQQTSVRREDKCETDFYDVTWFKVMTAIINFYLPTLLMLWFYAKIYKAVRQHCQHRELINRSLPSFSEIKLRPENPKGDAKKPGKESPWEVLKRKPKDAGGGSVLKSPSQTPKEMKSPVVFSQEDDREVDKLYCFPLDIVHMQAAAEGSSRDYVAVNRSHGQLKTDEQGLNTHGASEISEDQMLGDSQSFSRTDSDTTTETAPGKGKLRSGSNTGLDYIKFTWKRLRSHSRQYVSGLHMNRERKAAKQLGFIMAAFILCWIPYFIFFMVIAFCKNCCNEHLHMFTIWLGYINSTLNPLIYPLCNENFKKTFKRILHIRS
Summary of the method: as §1

dopaminergic D3 receptor = dopaminergic D3 receptor (Homo sapiens, UniProt P35462); assay: Binding assay D3 (h), [3H]methyl-spiperone, CHO cells; set-up: expressed in transfected cells; host or cells: CHO cells; settings: read-out: D3 [%]
Sequence of dopaminergic D3 receptor (P35462 whole entry): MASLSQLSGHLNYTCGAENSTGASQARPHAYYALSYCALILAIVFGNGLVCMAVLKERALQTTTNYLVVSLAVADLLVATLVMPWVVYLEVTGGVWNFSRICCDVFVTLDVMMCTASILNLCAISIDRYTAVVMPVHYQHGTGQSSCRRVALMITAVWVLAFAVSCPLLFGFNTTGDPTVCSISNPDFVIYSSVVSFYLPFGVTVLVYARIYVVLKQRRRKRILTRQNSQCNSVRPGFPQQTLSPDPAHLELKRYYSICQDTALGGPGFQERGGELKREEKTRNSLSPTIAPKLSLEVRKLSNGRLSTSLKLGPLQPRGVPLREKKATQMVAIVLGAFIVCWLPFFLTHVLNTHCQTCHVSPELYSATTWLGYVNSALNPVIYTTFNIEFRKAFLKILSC
Summary of the method: as §1

sigma σ receptor = assay: Binding assay σ (non-selective), [3H]DTG, rat cerebral cortex; settings: percent inhibition of control specific binding; compounds tested at 1×10^−6 M
Summary of the method: as §1

dopaminergic D2 receptor = dopaminergic D2 receptor (Homo sapiens, UniProt P14416); assay: Binding assay D2S (h), [3H]methyl-spiperone, HEK-293 cells; set-up: expressed in transfected cells; host or cells: HEK-293 cells; settings: read-out: D2 [%]
Sequence of dopaminergic D2 receptor (P14416 1-414 isoform P14416-2): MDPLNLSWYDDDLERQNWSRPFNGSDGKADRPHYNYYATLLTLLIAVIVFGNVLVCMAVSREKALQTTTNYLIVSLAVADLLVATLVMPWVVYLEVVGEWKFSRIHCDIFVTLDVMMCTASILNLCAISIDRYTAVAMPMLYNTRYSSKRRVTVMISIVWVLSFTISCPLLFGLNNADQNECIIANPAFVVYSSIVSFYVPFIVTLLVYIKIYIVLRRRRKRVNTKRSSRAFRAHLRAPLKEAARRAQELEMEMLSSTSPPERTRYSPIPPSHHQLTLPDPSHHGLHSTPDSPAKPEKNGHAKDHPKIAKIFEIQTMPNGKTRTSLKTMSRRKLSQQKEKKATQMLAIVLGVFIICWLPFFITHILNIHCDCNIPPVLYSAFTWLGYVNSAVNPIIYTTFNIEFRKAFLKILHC
Summary of the method: as §1

adrenergic α2C receptor [3] = target: T3, adrenergic α2C receptor (Homo sapiens, UniProt P18825); assay: Cellular functional assay, adrenergic α2C receptor (agonism/antagonism); type: cell-based; settings: for activation at 1 µM: agonist effect, percent of control specific agonist response, compounds tested at 1×10^−6M, read-out: α2C −ag [%]; for inhibition at 1 µM: read-out: α2C −antag. [%]
T3 sequence (P18825 1-462): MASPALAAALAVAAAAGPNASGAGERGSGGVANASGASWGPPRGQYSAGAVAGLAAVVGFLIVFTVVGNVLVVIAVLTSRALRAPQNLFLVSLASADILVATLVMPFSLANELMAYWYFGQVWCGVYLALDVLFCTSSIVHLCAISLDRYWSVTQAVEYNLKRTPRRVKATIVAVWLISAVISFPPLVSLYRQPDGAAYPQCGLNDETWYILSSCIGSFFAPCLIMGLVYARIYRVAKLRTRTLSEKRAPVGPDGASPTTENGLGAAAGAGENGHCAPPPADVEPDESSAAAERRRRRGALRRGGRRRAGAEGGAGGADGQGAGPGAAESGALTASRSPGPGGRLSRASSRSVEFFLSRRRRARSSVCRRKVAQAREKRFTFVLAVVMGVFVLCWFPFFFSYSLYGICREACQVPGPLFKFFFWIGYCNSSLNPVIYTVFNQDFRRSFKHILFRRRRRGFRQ
Description: (§2) The compounds were tested at the concentration of 1×10^−6M.
(§3) In the Tables ag refers to agonism, and antag to antagonism).

adrenergic α2C receptor [4] = target: T3, adrenergic α2C receptor; assay: Binding assay α2C (h), [3H]RX 821002, CHO cells; set-up: expressed in transfected cells; host or cells: CHO cells; settings: read-out: α2C [%]
Summary of the method: as §1

[5] = target: serotoninergic 5-HT6 receptor (Homo sapiens, UniProt P50406); assay: Binding assay 5-HT6 (h), [3H]LSD, CHO cells; set-up: expressed in transfected cells; host or cells: CHO cells; settings: read-out: 5-HT6
Sequence of serotoninergic 5-HT6 receptor (P50406 whole entry): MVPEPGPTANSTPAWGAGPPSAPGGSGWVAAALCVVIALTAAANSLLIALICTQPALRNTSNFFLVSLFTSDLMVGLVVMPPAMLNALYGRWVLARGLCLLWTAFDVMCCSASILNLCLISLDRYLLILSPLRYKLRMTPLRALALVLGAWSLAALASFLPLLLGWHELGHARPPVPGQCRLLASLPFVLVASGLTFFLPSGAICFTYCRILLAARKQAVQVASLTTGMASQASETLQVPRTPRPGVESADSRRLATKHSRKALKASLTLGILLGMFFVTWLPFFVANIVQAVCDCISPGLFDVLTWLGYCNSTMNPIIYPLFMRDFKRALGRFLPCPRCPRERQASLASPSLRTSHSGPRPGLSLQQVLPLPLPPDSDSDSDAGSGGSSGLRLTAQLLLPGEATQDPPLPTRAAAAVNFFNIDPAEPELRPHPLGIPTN
Summary of the method: as §1

[6] = target: T2, histaminergic H1 receptor; assay: Cellular functional assay, histaminergic H1 receptor (agonism/antagonism); type: cell-based; settings: for activation at 1 µM: agonist effect, percent of control specific agonist response, compounds tested at 1×10^−6M, read-out: H1 -ag [%]; for inhibition at 1 µM: read-out: H1 -antag. [%]
Description: as §2, §3

adrenergic α1 receptor = assay: Binding assay α1 (non-selective), [3H]prazosin, rat cerebral cortex; settings: percent inhibition of control specific binding; compounds tested at 1×10^−6 M
Summary of the method: as §1

muscarinic M3 receptor = target: T4, muscarinic M3 receptor (Homo sapiens, UniProt P20309); assay: Binding assay M3 (h), [3H]4-DAMP, CHO cells; settings: read-out: M3 [%]
T4 construct: expressed in transfected cells; host or cells: CHO cells
T4 sequence (P20309 whole entry): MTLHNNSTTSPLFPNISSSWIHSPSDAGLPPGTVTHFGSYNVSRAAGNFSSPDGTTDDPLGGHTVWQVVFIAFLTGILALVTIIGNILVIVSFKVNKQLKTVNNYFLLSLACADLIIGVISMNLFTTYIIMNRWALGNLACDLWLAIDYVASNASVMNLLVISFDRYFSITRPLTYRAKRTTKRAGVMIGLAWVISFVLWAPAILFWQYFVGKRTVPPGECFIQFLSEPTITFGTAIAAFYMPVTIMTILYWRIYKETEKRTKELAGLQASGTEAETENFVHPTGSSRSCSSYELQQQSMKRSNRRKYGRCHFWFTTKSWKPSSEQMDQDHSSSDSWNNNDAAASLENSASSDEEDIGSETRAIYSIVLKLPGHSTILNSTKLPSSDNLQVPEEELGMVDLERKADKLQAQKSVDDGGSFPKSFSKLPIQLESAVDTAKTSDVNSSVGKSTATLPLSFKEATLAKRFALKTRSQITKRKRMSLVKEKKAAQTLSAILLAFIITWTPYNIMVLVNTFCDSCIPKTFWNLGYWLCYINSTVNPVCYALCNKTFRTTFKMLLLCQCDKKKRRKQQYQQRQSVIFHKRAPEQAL
Summary of the method: as §1

[7] = target: serotoninergic 5-HT2A receptor (Homo sapiens, UniProt P28223); assay: Binding assay 5-HT2A (h), [3H]ketanserin, HEK-293 cells; set-up: expressed in transfected cells; host or cells: HEK-293 cells; settings: read-out: 5-HT2A
Sequence of serotoninergic 5-HT2A receptor (P28223 whole entry): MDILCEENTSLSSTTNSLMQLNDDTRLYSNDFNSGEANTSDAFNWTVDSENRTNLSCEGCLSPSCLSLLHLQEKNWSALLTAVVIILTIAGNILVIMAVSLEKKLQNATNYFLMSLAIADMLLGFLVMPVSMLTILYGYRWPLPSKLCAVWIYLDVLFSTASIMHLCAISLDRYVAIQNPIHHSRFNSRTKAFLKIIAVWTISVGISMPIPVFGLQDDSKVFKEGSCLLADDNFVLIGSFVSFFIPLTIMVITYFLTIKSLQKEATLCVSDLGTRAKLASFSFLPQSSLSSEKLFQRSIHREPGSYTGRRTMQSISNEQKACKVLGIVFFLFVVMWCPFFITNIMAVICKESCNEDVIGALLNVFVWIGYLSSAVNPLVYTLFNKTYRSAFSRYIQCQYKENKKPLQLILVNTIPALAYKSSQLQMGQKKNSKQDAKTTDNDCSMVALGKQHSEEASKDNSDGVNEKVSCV
Summary of the method: as §1

Row | Structure (SMILES) | inhibition at 1 µM [1] [%] | inhibition at 1 µM [2] [%] | inhibition at 1 µM (dopaminergic D3 receptor) [%] | σ [%] (sigma σ receptor) | inhibition at 1 µM (dopaminergic D2 receptor) [%] | activation at 1 µM (adrenergic α2C receptor [3]) [%] | inhibition at 1 µM (adrenergic α2C receptor [3]) [%] | inhibition at 1 µM (adrenergic α2C receptor [4]) [%] | inhibition at 1 µM [5] [%] | activation at 1 µM [6] [%] | inhibition at 1 µM [6] [%] | α1 [%] (adrenergic α1 receptor) | inhibition at 1 µM (muscarinic M3 receptor) [%] | inhibition at 1 µM [7] [%]
1 | Cc1c(S(=O)(=O)NCCCCN2CCN(c3nsc4ccccc34)CC2)sc2ccc(F)cc12 [Compound 65, N-[4-[4-(1,2-Benzothiazol-3-yl)piperazin-1-yl]butyl]-5-fluoro-3-methylbenzothiophene-2-sulphonamide] | 100 | 95 | 74 | 62 | 99 | 8 | 20 | 104 | 97 | 0 | 60 | 95 | 8 | 101
2 | O=S(=O)(NCCCCN1CCN(c2noc3ccccc23)CC1)c1cc2ccc(Cl)cc2s1 [Compound 288, N-[4-[4-(1,2-Benzoxazol-3-yl)piperazin-1-yl]butyl]-6-chlorobenzothiophene-2-sulphonamide] | 86 | 94 | 102 | 45 | 103 | 1 | 13 | 109 | 98 | 0 | 57 | 94 | 3 | 95
3 | O=S(=O)(NCCCCN1CCN(c2nsc3ccccc23)CC1)c1csc2ccccc12 [Compound 240, N-[4-[4-(1,2-Benzothiazol-3-yl)piperazin-1-yl]butyl]benzothiophene-3-sulphonamide] | 98 | 92 | 99 | 44 | 101 | 13 | 35 | 100 | 98 | 0 | 69 | 96 | 15 | 101
4 | O=S(=O)(NCCCCN1CCC(c2noc3cc(F)ccc23)CC1)c1ccc(Br)cc1 [Compound 298, 4-Bromo-N-[4-[4-(6-fluoro-1,2-benzoxazol-3-yl)piperidin-1-yl]butyl]benzenesulphonamide] | 67 | 90 | 98 | 68 | 99 | -4 | 39 | 98 | 98 | 30 | 90 | 103 | 19 | 100
5 | Cc1c(S(=O)(=O)NCCCCN2CCN(c3noc4ccccc34)CC2)sc2ccc(F)cc12 [Compound 81, N-[4-[4-(1,2-Benzoxazol-3-yl)piperazin-1-yl]butyl]-5-fluoro-3-methylbenzothiophene-2-sulphonamide] | 92 | 93 | 97 | 59 | 90 | 9 | 20 | 106 | 98 | 1 | 38 | 96 | 6 | 101
6 | O=S(=O)(NCCCCN1CCC(c2noc3cc(F)ccc23)CC1)c1csc2ccccc12 [Compound 313, N-[4-[4-(6-Fluoro-1,2-benzoxazol-3-yl)piperidin-1-yl]butyl]benzothiophene-3-sulphonamide] | 72 | 90 | 99 | 83 | 101 | -11 | 46 | 100 | 100 | 4 | 47 | 100 | 25 | 101
7 | O=S(=O)(NCCCCN1CCN(c2nsc3ccccc23)CC1)c1cc2ccccc2s1 [Compound 239, N-[4-[4-(1,2-Benzothiazol-3-yl)piperazin-1-yl]butyl]benzothiophene-2-sulphonamide] | 98 | 98 | 102 | 69 | 102 | 3 | 33 | 105 | 96 | 0 | 54 | 99 | 9 | 101
8 | O=c1[nH]c2ccc(S(=O)(=O)NCCCN3CCN(c4nsc5ccccc45)CC3)cc2o1 [Compound 8, N-(3-(4-(1,2-Benzothiazol-3-yl)piperazin-1-yl)propyl)-2-oxo-3H-1,3-benzoxazole-6-sulphonamide] | 100 | 97 | 97 | 17 | 98 | -16 | 1 | 93 | 91 | 1 | 98 | 94 | -11 | 100
9 | O=S(=O)(NCCCCN1CCC(c2noc3cc(F)ccc23)CC1)c1cc2ccc(Cl)cc2s1 [Compound 314, 6-Chloro-N-[4-[4-(6-fluoro-1,2-benzoxazol-3-yl)piperidin-1-yl]butyl]benzothiophene-2-sulphonamide] | 75 | 93 | 100 | 49 | 99 | -2 | 30 | 108 | 100 | 5 | 50 | 100 | 13 | 102
10 | O=S(=O)(NCCCN1CCC(c2noc3cc(F)ccc23)CC1)c1ccc2cn[nH]c2c1 [Compound 352, N-[3-[4-(6-Fluoro-1,2-benzoxazol-3-yl)piperidin-1-yl]propyl]-1H-indazole-6-sulphonamide] | 89 | 97 | 97 | 76 | 100 | -16 | 16 | 100 | 95 | 1 | 60 | 99 | 12 | 101
